In patent US9187484B2 (Southern Research Institute, priority 2012, dated 2015):

Legend:
LRRK2 (G2019S) = biological target: T1, LRRK2 (G2019S) (Homo sapiens, UniProt Q5S007, G2019S); assay: LRRK2 inhibition, radiometric kinase assay with recombinant GST-LRRK2 (delta970) and peptide substrate; type: biochemical; details: GST-LRRK2 (delta970) G2019S 30 nM, ATP ~52 μM (Km), 30 min at 30° C.
T1 construct: Recombinant GST-LRRK2 (delta970), purified from baculovirus infected insect cells (SF9); GST (N); host or cells: baculovirus infected insect cells (SF9)
Procedure, shortened: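 Recombinant GST-LRRK2 (delta970) from SF9 cells, wild-type or G2019S, at 30 nM in 50 mM Tris HCl pH 7.4, 1 mM EDTA with 50 μM peptide substrate and 0.1% DMSO. ATP at Km (˜92 μM WT, ˜52 μM G2019S) with 10 mM MgCl2 and gamma-32-P label; 30 min at 30° C. Phosphocellulose capture, scintillation counting.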

WT-LRRK2 or G2019S-LRRK2 = assay: Inhibition of LRRK2 phosphorylation (pS935 antibody) in lysates of transfected HEK-293T cells; type: cell-based; details: HEK-293T cells transiently transfected with either WT-LRRK2 or G2019S-LRRK2
Source text: To test whether Example 90 and Example 34 can inhibit LRRK2 phosphorylation, an antibody commercially available from Epitomics directed against the serine residue number 935 on LRRK2 from lysates generated from HEK-293T cells transiently transfected with either WT-LRRK2 or G2019S-LRRK2 protein.

G2019S-LRRK2 = assay: LPS-induced TNF-alpha in primary macrophages over-expressing G2019S-LRRK2; type: cell-based, mice; details: 5 μM 1 hour prior to LPS stimulation (100 ng/ml), TNF-alpha measured 6 hours later
Source text: Recently, high levels of LRRK2 expression in primary microglia that are the immune cells of the nervous system have been discovered (Moehle et al., J. Neuroscience (2012), PMID 22302802). […] More recently, LRRK2 has also been detected in primary macrophages, specifically macrophages isolated after thioglycolate exposures in mice. To assess whether Example 90 can inhibit the G2019S-LRRK2 induced increase in TNF-alpha to wild-type levels of TNF-alpha induction by LPS, primary macrophages were exposed in culture to 5 μM 1 hour prior to LPS stimulation (100 ng/ml), and TNF-alpha levels were measured 6 hours later.

T1 sequence (Q5S007 970-2527 G2019S limits assumed): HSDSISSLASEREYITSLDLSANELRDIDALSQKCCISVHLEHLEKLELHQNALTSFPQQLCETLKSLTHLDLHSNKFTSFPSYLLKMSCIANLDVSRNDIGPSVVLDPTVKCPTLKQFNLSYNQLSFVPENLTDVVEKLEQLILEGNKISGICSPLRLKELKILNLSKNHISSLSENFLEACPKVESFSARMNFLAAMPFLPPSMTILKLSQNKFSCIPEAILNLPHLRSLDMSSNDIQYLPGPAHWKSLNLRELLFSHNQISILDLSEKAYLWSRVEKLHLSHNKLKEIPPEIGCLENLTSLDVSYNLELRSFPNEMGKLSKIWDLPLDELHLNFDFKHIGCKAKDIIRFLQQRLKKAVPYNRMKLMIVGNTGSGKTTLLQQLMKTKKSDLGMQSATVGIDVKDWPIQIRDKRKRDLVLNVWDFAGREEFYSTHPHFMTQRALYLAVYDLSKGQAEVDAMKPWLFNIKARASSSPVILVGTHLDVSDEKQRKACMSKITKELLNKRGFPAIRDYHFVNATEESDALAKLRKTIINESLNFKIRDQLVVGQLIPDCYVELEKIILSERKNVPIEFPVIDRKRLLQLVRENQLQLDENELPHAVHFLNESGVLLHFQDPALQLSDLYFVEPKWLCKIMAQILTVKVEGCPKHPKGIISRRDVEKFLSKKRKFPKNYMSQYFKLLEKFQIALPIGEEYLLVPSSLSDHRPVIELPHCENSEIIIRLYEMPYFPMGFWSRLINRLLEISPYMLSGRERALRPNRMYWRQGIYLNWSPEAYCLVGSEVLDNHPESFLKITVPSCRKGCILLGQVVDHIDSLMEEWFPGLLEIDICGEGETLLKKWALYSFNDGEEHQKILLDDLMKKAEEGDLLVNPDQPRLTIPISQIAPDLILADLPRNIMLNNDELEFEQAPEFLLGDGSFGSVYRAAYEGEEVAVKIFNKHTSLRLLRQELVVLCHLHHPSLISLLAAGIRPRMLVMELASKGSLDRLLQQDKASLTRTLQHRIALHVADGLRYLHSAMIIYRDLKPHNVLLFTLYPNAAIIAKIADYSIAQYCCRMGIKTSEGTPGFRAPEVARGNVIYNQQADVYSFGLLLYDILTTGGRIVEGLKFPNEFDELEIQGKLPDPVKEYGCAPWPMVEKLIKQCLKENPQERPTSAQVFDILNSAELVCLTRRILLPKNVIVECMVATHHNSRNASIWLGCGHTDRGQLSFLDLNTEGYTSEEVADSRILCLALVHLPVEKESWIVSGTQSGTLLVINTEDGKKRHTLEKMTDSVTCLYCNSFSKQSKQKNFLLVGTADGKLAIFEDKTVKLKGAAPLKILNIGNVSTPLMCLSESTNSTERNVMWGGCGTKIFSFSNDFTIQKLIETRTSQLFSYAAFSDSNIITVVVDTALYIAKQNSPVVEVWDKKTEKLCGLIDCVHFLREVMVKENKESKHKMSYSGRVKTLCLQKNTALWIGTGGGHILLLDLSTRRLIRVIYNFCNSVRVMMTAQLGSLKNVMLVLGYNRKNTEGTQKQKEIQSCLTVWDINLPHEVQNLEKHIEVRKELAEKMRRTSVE

IC50 (LRRK2 (G2019S)): < 100 nM
Structure (SMILES): CC(Sc1ccc2nnc(-c3cccs3)n2n1)C(=O)N1CCCCC1 (stereo not drawn) [Example 90, 1-(piperidin-1-yl)-2-((3-(thiophen-2-yl)-[1,2,4]triazolo[4,3-b]pyridazin-6-yl)thio)propan-1-one]
levels of pS935 on LRRK2 (WT-LRRK2 or G2019S-LRRK2): partially inhibited | TNF-alpha levels (G2019S-LRRK2 induced increase) (G2019S-LRRK2): successfully returned G2019S-LRRK2 over-expressing cells back to WT levels
